From US9756864B2

Legend:
[1] = test system: Venturia inaequalis; test: Venturia test (apples)/preventive; settings: preventive spray, 10 days after inoculation
Experimental: Venturia Test (Apples)/Preventive
After the spray coating has dried on, the plants are inoculated with an aqueous conidia suspension of the causal agent of apple scab (Venturia inaequalis) and then remain for 1 day in an incubation cabinet at approximately 20° C. and a relative atmospheric humidity of 100%.
The plants are then placed in a greenhouse at approximately 21° C. and a relative atmospheric humidity of approximately 90%.
The test is evaluated 10 days after the inoculation.

[2] = test system: Alternaria solani; test: Alternaria test (tomatoes)/preventive; settings: preventive spray, 3 days after inoculation
Experimental: The application rate of QST30002 refers to the amount of dried Bacillus subtilis AQ30002 aka QST300202 (NRRL Accession No. B-50421.
After the spray coating has dried on, the plants are inoculated with an aqueous spore suspension of Alternaria solani. The plants are then placed in an incubation cabinet at approximately 20° C. and a relative atmospheric humidity of 100%.
The test is evaluated 3 days after the inoculation.

[3] = test system: Sphaerotheca fuliginea; test: Sphaerotheca test (cucumbers)/preventive; settings: preventive spray, 7 days after inoculation
Experimental: Sphaerotheca Test (Cucumbers)/Preventive
After the spray coating has dried on, the plants are inoculated with an aqueous spore suspension of Sphaerotheca fuliginea. The plants are then placed in a greenhouse at approximately 23° C. and a relative atmospheric humidity of approximately 70%.
The test is evaluated 7 days after the inoculation.

[4] = test system: Botrytis cinerea; test: Botrytis test (beans)/preventive; settings: Table E, 100 ppm a.i., preventive spray, lesion size 2 days after inoculation
Experimental: Botrytis Test (Beans)/Preventive
After the spray coating has dried on, 2 small pieces of agar covered with growth of Botrytis cinerea are placed on each leaf. The inoculated plants are placed in a darkened chamber at 20° C. and a relative atmospheric humidity of 100%.
2 days after the inoculation, the size of the lesions on the leaves is evaluated.

[5] = test system: Phytophthora infestans; format: in vivo; settings: Table A; 100 ppm a.i.; tomatoes, preventive spray; 3 days after inoculation

For `O=C(NCCc1ncc(C(F)(F)F)cc1Cl)c1ccccc1C(F)(F)F` [F70 fluopyram, fluopyram], the “Efficacy in % found (activity found)” value ([1]; Table B1, 4 ppm a.i.) was 4%, the “Efficacy in % found (activity found)” value ([2]; Table D1, 4 ppm a.i.) was 33% and the “Efficacy in % found (activity found)” value ([3]; Table C2, 4 ppm a.i.) was 10%.
With `CC(C)Oc1cccc(NC(=O)c2ccccc2C(F)(F)F)c1` [F71 flutolanil, flutolanil] the “Efficacy in % found (activity found)” value [4] was 0%, the “Efficacy in % found (activity found)” value ([1]; Table B2, 100 ppm a.i.) was 4% and the “Efficacy in % found (activity found)” value ([2]; Table D2, 50 ppm a.i.) was 43%. The “Efficacy in % found (activity found)” value ([3]; Table C1, 100 ppm a.i.) was 0% and the “Efficacy in % found (activity found)” value [5] was 33%.
`Cn1cc(C(=O)Nc2ccccc2-c2cc(F)c(F)c(F)c2)c(C(F)F)n1` [F72 fluxapyroxad, fluxapyroxad] was tested, and the “Efficacy in % found (activity found)” value ([1]; Table B1, 0.5 ppm a.i.) was 43%, the “Efficacy in % found (activity found)” value ([2]; Table D1, 1 ppm a.i.) was 47% and the “Efficacy in % found (activity found)” value ([3]; Table C2, 1 ppm a.i.) was 29%.
For `Cc1nn(C)c(F)c1C(=O)Nc1ccccc1C(C)CC(C)C` (stereo not shown) [F84 penflufen, penflufen], the “Efficacy in % found (activity found)” value ([1]; Table B1, 2 ppm a.i.) was 0% and the “Efficacy in % found (activity found)” value ([3]; Table C2, 2 ppm a.i.) was 0%.
